These results are taken from patent US20090306098A1 (Cyclacel Limited, priority 2005, published 2009).

Test [1] concerns H460 cells. The following applies: H460, 1×IC50; medium 24 h then seliciclib 24 h; FIG. 6.
The test system of test [2] is A549 cells. The following applies: A549 (value in parentheses), combined with seliciclib. The procedure:
Experiments were carried out in 96-well plates and the cell lines seeded at a density of 2000/well for A549 and 3000/well for H460. […] Each HDAC inhibitor was then tested in combination with seliciclib using three different treatment regimes: concomitant, seliciclib pre-treatment followed by HDAC inhibitor and HDAC inhibitor pretreatment followed by seliciclib.
The drug concentrations selected were chosen to span the IC50 values for the drugs tested. In the pre-treatment regimes, the first drug was added 2 h after cells were plated, and left for 24 h. Medium was aspirated and replaced with fresh medium containing the second drug, and incubated for 72 h. The two controls for each sequential treatment involved substituting one of the drug treatments with medium.
Seliciclib was tested in combination with the indicated HDAC inhibitors in H460 and A549 cell lines, using three different treatment regimes. […] Data are the average of at least three independent experiments (Table 1).

In test [3] the test system is H460 cells. The experiment in a line: Calcusyn drug combination (Alamar blue) in H460 cells. The test is classed as cell-based. The settings on record: HDAC inhibitor combined with seliciclib.
The mark [4] stands for this setting: HDAC inhibitor 24 h then seliciclib 72 h.
Where [5] appears, read: seliciclib 24 h then HDAC inhibitor 72 h.

For the compound `CC[C@H](CO)Nc1nc(NCc2ccccc2)c2ncn(C(C)C)c2n1` [seliciclib, 2-(1-R-hydroxymethylpropylamino)-6-benzylamino-9-isopropylpurine], in test [1], the “overall cell cycle distribution” value was “no significant impact”.
In the case of `CCCC(=O)[O-].[Na+]` [Butyrate, sodium butyrate], in test [2] (setting [4]), the “Combination Index at ED50, HDAC inhibitor pretreatment” value is recorded as 0.95; the “Combination Index at ED75, HDAC inhibitor pretreatment” value came to 0.71; the “Combination Index at ED90, HDAC inhibitor pretreatment” value was determined as 0.60. In test [2] (both drugs 72 h), the “Combination Index at ED50, Concomitant treatment” value is 1.21; the “Combination Index at ED75, Concomitant treatment” value came out at 0.87; the “Combination Index at ED90, Concomitant treatment” value was 0.64. In addition, in test [2] (setting [5]), the “Combination Index at ED50, Seliciclib pretreatment” value is reported as 1.08; the “Combination Index at ED75, Seliciclib pretreatment” value is on record as 0.88; the “Combination Index at ED90, Seliciclib pretreatment” value worked out at 0.75. In test [3] (setting [4]), the “Combination Index at ED50, HDAC inhibitor pretreatment” value is listed as 0.74; the “Combination Index at ED75, HDAC inhibitor pretreatment” value is on record as 0.53; the “Combination Index at ED90, HDAC inhibitor pretreatment” value was 0.40. Also, in test [3] (both drugs 72 h), the “Combination Index at ED50, Concomitant treatment” value is 0.82; the “Combination Index at ED75, Concomitant treatment” value was 0.59; the “Combination Index at ED90, Concomitant treatment” value is 0.44. For the same compound, in test [3] (setting [5]), the “Combination Index at ED50, Seliciclib pretreatment” value is 0.88; the “Combination Index at ED75, Seliciclib pretreatment” value was 0.68; the “Combination Index at ED90, Seliciclib pretreatment” value is recorded as 0.57.
Regarding `CCCC(CCC)C(=O)[O-].[Na+]` [Sodium valproate, sodium 2-propylpentanoate], the “Combination Index at ED90, HDAC inhibitor pretreatment” value in test [3] (setting [4]) is recorded as 0.84. Also, the “Combination Index at ED90, Concomitant treatment” value in test [3] (both drugs 72 h) is recorded as 1.07. For the same compound, in test [3] (setting [5]), the “Combination Index at ED90, Seliciclib pretreatment” value is recorded as 0.81.
